Test results taken from US20080009418A1, “Selective Inhibitors” (Alchemia LTD., priority 2004, published 2008).

Experiments:
Human δ-opioid (DOP) = target: T1, Human δ-opioid (DOP) (Homo sapiens, UniProt P41143); test: Radioligand binding, human δ-opioid (DOP) membranes, FlashPlate, [3H]-Bremazocine; conditions: compound at 10 μM; for A1: inhibition of radioligand binding, human δ-opioid (DOP) / A1: inhibition of radioligand binding: [3H]-Bremazocine; for A1: inhibition of radioligand binding: human DOP membranes
T1 construct: purchased Perkin Elmer Biosignal
Procedure, shortened: (§1)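 Cloned human receptor membranes were coated onto FlashPlate wells and incubated with radioligand and compound (added from a 0.5 mM DMSO daughter plate) for 1 hour at room temperature in the dark. Scintillation counting gave percent inhibition, with DMSO defining total and reference ligand defining non-specific binding.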

Human κ-Opioid (KOP) = target: T2, Human κ-Opioid (KOP) (Homo sapiens, UniProt P41145); test: Radioligand binding, human κ-opioid (KOP) membranes, filtration, [3H]-Diprenorphine; conditions: compound at 10 μM; for A2: inhibition of radioligand binding, human κ-opioid (KOP) / A2: inhibition of radioligand binding: [3H]-Diprenorphine; for A2: inhibition of radioligand binding: human KOP membranes
T2 construct: purchased Perkin Elmer Biosignal
Procedure, shortened: (§2)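 Percent inhibition of radioligand binding measured on recombinant human membranes: NK1 with [125I]-Substance P, KOP with [3H]-Diprenorphine. Incubation 1 h at room temperature, then harvest onto 0.3% PEI-soaked filters, cold Tris-HCl pH 7.4 washes and scintillation counting; non-specific binding from reference ligand wells.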

Human Melanocortin (MC3) = target: T3, Human Melanocortin (MC3) (Homo sapiens, UniProt P41968); test: Radioligand binding, human melanocortin MC3 membranes, FlashPlate, [125I]-NDP-αMSH; conditions: compound at 10 μM; for A3: inhibition of radioligand binding, human melanocortin (MC3) / A3: inhibition of radioligand binding: [125I]-NDP-αMSH; for A3: inhibition of radioligand binding: human MC3 membranes
T3 construct: purchased Perkin Elmer Biosignal
Procedure, shortened: as §1

Human Melanocortin (MC4) = target: T4, Human Melanocortin (MC4) (Homo sapiens, UniProt P32245); test: Radioligand binding, human melanocortin MC4 membranes, FlashPlate, [125I]-NDP-αMSH; conditions: compound at 10 μM; for A4: inhibition of radioligand binding, human melanocortin (MC4) / A4: inhibition of radioligand binding: [125I]-NDP-αMSH; for A4: inhibition of radioligand binding: human MC4 membranes
T4 construct: purchased Perkin Elmer Biosignal
Procedure, shortened: as §1

Human melanocortin (MC5) = target: T5, Human melanocortin (MC5) (Homo sapiens, UniProt P33032); test: Radioligand binding, human melanocortin MC5 membranes, FlashPlate, [125I]-NDP-αMSH; conditions: compound at 10 μM; for A5: inhibition of radioligand binding, human melanocortin (MC5) / A5: inhibition of radioligand binding: [125I]-NDP-αMSH; for A5: inhibition of radioligand binding: human MC5 membranes
T5 construct: purchased Perkin Elmer Biosignal
Procedure, shortened: as §1

[1] = target: T6, Human melanin-concentrating hormone (MCH1) (Homo sapiens, UniProt Q99705); test: Radioligand binding, human melanin-concentrating hormone MCH1 membranes, FlashPlate, [125I]-S36057; conditions: compound at 10 μM; for A6: inhibition of radioligand binding, human melanin-concentrating hormone (MCH1): [125I]-S36057; for A6: inhibition of radioligand binding: [125I]-S36057, human MCH1 membranes
T6 construct: purchased Perkin Elmer Biosignal
Procedure, shortened: as §1

Human μ-opioid (MOP) = target: T7, Human μ-opioid (MOP) (Homo sapiens, UniProt P35372); test: Radioligand binding, human μ-opioid (MOP) membranes, FlashPlate, [3H]-Naloxone; conditions: compound at 10 μM; for A7: inhibition of radioligand binding, human μ-opioid (MOP) / A7: inhibition of radioligand binding: [3H]-Naloxone; for A7: inhibition of radioligand binding: human MOP membranes
T7 construct: purchased Perkin Elmer Biosignal
Procedure, shortened: as §1

Human neurokinin (NK1) = target: T8, Human neurokinin (NK1) (Homo sapiens, UniProt P25103); test: Radioligand binding, human neurokinin NK1 membranes, filtration, [125I]-Substance P; conditions: compound at 10 μM; for A8: inhibition of radioligand binding, human neurokinin (NK1) / A8: inhibition of radioligand binding: [125I]-Substance P; for A8: inhibition of radioligand binding: human NK1 membranes
T8 construct: purchased Perkin Elmer Biosignal
Procedure, shortened: as §2

[2] = target: T9, Human neuropeptide Y (NPY-Y1) (Homo sapiens, UniProt P25929); test: Radioligand binding, human neuropeptide Y NPY-Y1 membranes, FlashPlate, [125I]-PYY; conditions: compound at 10 μM; for A9: inhibition of radioligand binding, human neuropeptide Y (NPY-Y1) / A9: inhibition of radioligand binding: [125I]-PYY
T9 construct: purchased Perkin Elmer Biosignal
T9 sequence (P25929 1-384): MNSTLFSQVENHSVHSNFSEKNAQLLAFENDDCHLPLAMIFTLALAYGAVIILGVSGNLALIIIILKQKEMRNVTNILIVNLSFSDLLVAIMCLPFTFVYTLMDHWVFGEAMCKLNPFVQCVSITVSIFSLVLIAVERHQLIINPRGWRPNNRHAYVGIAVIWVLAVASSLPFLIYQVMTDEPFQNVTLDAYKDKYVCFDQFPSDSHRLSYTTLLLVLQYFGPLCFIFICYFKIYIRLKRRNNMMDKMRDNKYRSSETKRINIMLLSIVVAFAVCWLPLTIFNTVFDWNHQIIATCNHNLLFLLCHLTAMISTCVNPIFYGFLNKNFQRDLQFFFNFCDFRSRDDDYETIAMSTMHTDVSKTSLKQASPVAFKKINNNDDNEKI
Procedure, shortened: as §1

Human opioid (ORL1) = target: T10, Human opioid (ORL1) (Homo sapiens, UniProt P41146); test: Radioligand binding, human opioid ORL1 membranes, FlashPlate, [125I]-Nociceptin; conditions: compound at 10 μM; for A10: inhibition of radioligand binding, human opioid (ORL1) / A10: inhibition of radioligand binding: [125I]-Nociceptin
T10 construct: purchased Perkin Elmer Biosignal
Procedure, shortened: as §1

Mouse urotensin (mUR2) = target: T11, Mouse urotensin (mUR2) (Mus musculus, UniProt Q8VIH9); test: Radioligand binding, mouse urotensin mUR2 membranes, FlashPlate, [125I]-Urotensin II; conditions: compound at 10 μM; for A11: inhibition of radioligand binding, mouse urotensin (mUR2) / A11: inhibition of radioligand binding: [125I]-Urotensin II; for A11: inhibition of radioligand binding: mouse mUR2 membranes
T11 construct: purchased Perkin Elmer Biosignal
T11 sequence (Q8VIH9 1-385): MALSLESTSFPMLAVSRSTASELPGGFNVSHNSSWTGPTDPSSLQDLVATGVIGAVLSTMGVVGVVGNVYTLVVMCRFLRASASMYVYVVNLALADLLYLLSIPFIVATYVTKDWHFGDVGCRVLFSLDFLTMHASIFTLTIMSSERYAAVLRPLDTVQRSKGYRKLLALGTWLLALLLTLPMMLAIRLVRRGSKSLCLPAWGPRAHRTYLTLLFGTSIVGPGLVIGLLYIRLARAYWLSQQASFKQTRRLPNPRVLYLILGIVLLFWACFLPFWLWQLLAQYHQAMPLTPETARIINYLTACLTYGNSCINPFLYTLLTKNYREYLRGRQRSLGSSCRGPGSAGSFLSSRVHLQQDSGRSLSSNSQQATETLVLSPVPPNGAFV
Procedure, shortened: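 Cloned mouse urotensin (mUR2) receptor membranes from Perkin Elmer Biosignal were immobilized in FlashPlate microplates using a proprietary coating. Each well got 19.5 μl buffer, then 0.5 μl of DMSO, reference ligand, or compound. Adding 5 μl of [125I]-Urotensin II, diluted to 5× final concentration in binding buffer, started binding. Plates were sealed with TopSeal-A and incubated 1 hour at room temperature in the dark. Wells were counted for 30 seconds each on a TopCount after a 60-second delay, and percentage inhibition was calculated.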

T8 sequence (P25103 whole entry): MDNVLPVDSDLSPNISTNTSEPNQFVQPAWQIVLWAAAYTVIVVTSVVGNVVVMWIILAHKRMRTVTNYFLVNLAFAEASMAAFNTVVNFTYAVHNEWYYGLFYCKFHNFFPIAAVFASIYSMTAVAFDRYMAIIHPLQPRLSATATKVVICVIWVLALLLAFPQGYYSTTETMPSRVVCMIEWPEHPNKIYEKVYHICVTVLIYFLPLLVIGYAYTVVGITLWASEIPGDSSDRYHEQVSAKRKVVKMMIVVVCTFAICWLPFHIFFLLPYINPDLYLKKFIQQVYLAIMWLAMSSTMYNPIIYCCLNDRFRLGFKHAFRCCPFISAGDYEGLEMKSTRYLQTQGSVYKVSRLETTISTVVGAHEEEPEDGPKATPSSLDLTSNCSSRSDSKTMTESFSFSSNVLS
T7 sequence (P35372 whole entry): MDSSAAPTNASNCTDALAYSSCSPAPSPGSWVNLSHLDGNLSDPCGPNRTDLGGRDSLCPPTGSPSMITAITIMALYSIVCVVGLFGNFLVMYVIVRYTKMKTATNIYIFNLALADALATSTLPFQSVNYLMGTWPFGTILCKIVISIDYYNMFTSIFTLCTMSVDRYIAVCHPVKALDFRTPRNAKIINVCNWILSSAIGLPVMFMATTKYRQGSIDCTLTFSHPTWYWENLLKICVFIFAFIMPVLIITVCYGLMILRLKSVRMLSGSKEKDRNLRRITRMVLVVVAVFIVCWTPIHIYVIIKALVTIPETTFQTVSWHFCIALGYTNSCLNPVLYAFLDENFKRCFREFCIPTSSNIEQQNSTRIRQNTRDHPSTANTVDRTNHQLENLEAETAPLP
T10 sequence (P41146 whole entry): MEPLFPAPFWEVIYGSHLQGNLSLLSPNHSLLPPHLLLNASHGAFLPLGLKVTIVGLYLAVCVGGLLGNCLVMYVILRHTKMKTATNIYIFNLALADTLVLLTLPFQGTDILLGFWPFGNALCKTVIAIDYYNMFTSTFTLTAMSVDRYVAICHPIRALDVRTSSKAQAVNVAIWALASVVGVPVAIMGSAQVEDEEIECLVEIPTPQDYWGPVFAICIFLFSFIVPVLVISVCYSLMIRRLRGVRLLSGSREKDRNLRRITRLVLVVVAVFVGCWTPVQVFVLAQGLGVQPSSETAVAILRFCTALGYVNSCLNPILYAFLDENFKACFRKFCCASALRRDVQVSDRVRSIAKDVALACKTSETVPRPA
T2 sequence (P41145 whole entry): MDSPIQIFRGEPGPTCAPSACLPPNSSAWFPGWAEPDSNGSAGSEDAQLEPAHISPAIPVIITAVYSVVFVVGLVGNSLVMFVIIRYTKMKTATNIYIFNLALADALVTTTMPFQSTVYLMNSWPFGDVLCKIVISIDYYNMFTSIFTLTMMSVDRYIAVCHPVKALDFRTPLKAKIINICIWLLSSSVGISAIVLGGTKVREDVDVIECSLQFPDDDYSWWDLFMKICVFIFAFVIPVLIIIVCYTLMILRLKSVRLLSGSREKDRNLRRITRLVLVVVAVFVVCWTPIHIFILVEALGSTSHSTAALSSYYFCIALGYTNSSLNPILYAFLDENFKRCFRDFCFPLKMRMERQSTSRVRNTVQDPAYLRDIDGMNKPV
T5 sequence (P33032 whole entry): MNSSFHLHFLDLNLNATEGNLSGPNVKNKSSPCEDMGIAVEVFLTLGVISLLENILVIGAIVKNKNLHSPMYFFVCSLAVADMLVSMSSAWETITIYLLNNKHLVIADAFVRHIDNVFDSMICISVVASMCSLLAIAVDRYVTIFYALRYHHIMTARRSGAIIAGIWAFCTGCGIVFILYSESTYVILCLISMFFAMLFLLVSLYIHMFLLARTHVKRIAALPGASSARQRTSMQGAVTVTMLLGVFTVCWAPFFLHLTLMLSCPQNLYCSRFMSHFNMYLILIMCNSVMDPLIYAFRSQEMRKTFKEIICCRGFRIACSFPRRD
T3 sequence (P41968 whole entry): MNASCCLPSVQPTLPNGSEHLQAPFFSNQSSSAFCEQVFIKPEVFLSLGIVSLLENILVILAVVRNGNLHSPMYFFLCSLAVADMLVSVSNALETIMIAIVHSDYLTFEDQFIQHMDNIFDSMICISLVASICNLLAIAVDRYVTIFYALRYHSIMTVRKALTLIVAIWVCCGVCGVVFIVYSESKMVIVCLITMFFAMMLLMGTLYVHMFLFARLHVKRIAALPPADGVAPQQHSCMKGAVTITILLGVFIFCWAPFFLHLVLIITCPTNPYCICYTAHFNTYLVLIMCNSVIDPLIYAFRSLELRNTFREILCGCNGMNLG
T1 sequence (P41143 whole entry): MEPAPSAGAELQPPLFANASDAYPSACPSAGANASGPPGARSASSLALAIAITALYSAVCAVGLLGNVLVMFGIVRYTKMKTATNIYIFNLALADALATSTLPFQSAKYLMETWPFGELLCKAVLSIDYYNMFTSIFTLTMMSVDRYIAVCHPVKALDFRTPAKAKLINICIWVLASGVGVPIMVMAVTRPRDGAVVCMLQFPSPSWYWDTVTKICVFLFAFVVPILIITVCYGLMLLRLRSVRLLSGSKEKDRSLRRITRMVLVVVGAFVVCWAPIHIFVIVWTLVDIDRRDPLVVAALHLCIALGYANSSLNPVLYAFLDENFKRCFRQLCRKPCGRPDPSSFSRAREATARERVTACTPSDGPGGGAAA
T6 sequence (Q99705 whole entry): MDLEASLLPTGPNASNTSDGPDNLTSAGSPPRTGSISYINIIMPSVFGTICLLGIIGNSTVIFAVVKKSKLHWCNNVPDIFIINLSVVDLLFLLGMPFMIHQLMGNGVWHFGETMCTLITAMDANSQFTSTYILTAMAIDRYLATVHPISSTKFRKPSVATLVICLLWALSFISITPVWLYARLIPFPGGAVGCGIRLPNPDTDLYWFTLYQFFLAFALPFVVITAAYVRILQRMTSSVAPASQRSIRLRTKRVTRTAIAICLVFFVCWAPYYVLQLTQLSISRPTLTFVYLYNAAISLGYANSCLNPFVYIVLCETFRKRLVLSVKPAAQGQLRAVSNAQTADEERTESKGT
T4 sequence (P32245 whole entry): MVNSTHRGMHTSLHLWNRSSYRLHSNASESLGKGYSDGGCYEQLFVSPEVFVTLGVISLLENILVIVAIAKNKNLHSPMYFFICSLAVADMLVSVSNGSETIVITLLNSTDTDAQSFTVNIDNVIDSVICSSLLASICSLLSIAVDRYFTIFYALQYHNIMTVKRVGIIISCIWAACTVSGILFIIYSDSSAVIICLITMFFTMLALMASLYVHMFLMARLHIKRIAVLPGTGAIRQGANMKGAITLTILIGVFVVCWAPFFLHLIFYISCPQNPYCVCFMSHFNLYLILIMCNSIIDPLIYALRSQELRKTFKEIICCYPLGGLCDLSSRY

Row | Structure (SMILES) | A1: inhibition of radioligand binding, human δ-opioid (DOP) (Human δ-opioid (DOP)) | A3: inhibition of radioligand binding, human melanocortin (MC3) (Human Melanocortin (MC3)) | A4: inhibition of radioligand binding, human melanocortin (MC4) (Human Melanocortin (MC4)) | A5: inhibition of radioligand binding, human melanocortin (MC5) (Human melanocortin (MC5)) | A6: inhibition of radioligand binding, human melanin-concentrating hormone (MCH1) [1] | A7: inhibition of radioligand binding, human μ-opioid (MOP) (Human μ-opioid (MOP)) | A8: inhibition of radioligand binding, human neurokinin (NK1) (Human neurokinin (NK1)) | A10: inhibition of radioligand binding, human opioid (ORL1) (Human opioid (ORL1)) | A11: inhibition of radioligand binding, mouse urotensin (mUR2) (Mouse urotensin (mUR2)) | A1: inhibition of radioligand binding (Human δ-opioid (DOP)) | A2: inhibition of radioligand binding (Human κ-Opioid (KOP)) | A3: inhibition of radioligand binding (Human Melanocortin (MC3)) | A4: inhibition of radioligand binding (Human Melanocortin (MC4)) | A6: inhibition of radioligand binding [1] | A7: inhibition of radioligand binding (Human μ-opioid (MOP)) | A8: inhibition of radioligand binding (Human neurokinin (NK1)) | A9: inhibition of radioligand binding ([2]; human NPY-Y1 membranes) | A10: inhibition of radioligand binding (Human opioid (ORL1); human ORL1 membranes) | A11: inhibition of radioligand binding (Mouse urotensin (mUR2)) | further results
1 | NCCC(=O)NC1C(OCc2ccccc2)OC(COCc2ccc3ccccc3c2)C(O)C1OCc1ccc(Cl)cc1 (stereo not shown) [compound 364] | − (“−” indicates less than 50% inhibition at 10 μM) | + (“+” indicates greater than 50% inhibition at 10 μM) | + (“+” indicates greater than 50% inhibition at 10 μM) | + (“+” indicates greater than 50% inhibition at 10 μM) | − (“−” indicates less than 50% inhibition at 10 μM) | − (“−” indicates less than 50% inhibition at 10 μM) | + (“+” indicates greater than 50% inhibition at 10 μM) | − (“−” indicates less than 50% inhibition at 10 μM) | − (“−” indicates less than 50% inhibition at 10 μM) |  |  |  |  |  |  |  |  |  |  | A2: inhibition of radioligand binding, human κ-opioid (KOP) (Human κ-Opioid (KOP)): − (“−” indicates less than 50% inhibition at 10 μM); A9: inhibition of radioligand binding, human neuropeptide Y (NPY-Y1) [2]: − (“−” indicates less than 50% inhibition at 10 μM)
2 | NCCC(=O)NC1C(OCc2ccc3ccccc3c2)OC(COCc2ccccc2)C(O)C1OCc1ccc(Cl)cc1 (stereo not shown) [compound 382] |  |  |  |  |  |  |  |  |  | − (“−” indicates less than 50% inhibition at 10 μM) | − (“−” indicates less than 50% inhibition at 10 μM) | − (“−” indicates less than 50% inhibition at 10 μM) | + (“+” indicates greater than 50% inhibition at 10 μM) | − (“−” indicates less than 50% inhibition at 10 μM) | − (“−” indicates less than 50% inhibition at 10 μM) | + (“+” indicates greater than 50% inhibition at 10 μM) | − (“−” indicates less than 50% inhibition at 10 μM) | − (“−” indicates less than 50% inhibition at 10 μM) | − (“−” indicates less than 50% inhibition at 10 μM) | A5: inhibition of radioligand binding (Human melanocortin (MC5)): + (“+” indicates greater than 50% inhibition at 10 μM)
3 | N=C(N)NCC(=O)N[C@H]1C(OCc2ccc(Cl)cc2)O[C@H](COCc2ccc3ccccc3c2)[C@@H](O)[C@@H]1OCc1ccc2ccccc2c1 (stereo partly shown) [compound 513] | − (“−” indicates less than 50% inhibition at 10 μM) | + (“+” indicates greater than 50% inhibition at 10 μM) | + (“+” indicates greater than 50% inhibition at 10 μM) | + (“+” indicates greater than 50% inhibition at 10 μM) | + (“+” indicates greater than 50% inhibition at 10 μM) | + (“+” indicates greater than 50% inhibition at 10 μM) | + (“+” indicates greater than 50% inhibition at 10 μM) | + (“+” indicates greater than 50% inhibition at 10 μM) | − (“−” indicates less than 50% inhibition at 10 μM) |  |  |  |  |  |  |  |  |  |  | A2: inhibition of radioligand binding, human κ-opioid (KOP) (Human κ-Opioid (KOP); 10 µM): + (“+” indicates greater than 50% inhibition at 10 μM); A9: inhibition of radioligand binding, human neuropeptide Y (NPY-Y1) ([2]; 10 µM): + (“+” indicates greater than 50% inhibition at 10 μM)
4 | CO[C@H]1[C@H](O)[C@@H](COCc2ccc3ccccc3c2)OC(OCc2ccc3ccccc3c2)[C@@H]1NC(=O)CCCN (stereo partly shown) [compound 72] |  |  |  |  |  |  |  |  |  |  |  |  |  |  |  |  |  |  |  | A1 radioligand binding inhibition (Human δ-opioid (DOP); human δ-opioid (DOP) membranes): − (“−” indicates less than 50% inhibition at 10 μM); A2 radioligand binding inhibition (Human κ-Opioid (KOP); human κ-opioid (KOP) membranes): − (“−” indicates less than 50% inhibition at 10 μM); A3 radioligand binding inhibition (Human Melanocortin (MC3); human melanocortin MC3 membranes): − (“−” indicates less than 50% inhibition at 10 μM); A4 radioligand binding inhibition (Human Melanocortin (MC4); human melanocortin MC4 membranes): + (“+” indicates greater than 50% inhibition at 10 μM); A5 radioligand binding inhibition (Human melanocortin (MC5); human melanocortin MC5 membranes): + (“+” indicates greater than 50% inhibition at 10 μM); A6 radioligand binding inhibition ([1]; human MCH1 membranes): − (“−” indicates less than 50% inhibition at 10 μM); A7 radioligand binding inhibition (Human μ-opioid (MOP); human μ-opioid (MOP) membranes): − (“−” indicates less than 50% inhibition at 10 μM); A8 radioligand binding inhibition (Human neurokinin (NK1); human neurokinin NK1 membranes): + (“+” indicates greater than 50% inhibition at 10 μM); A9 radioligand binding inhibition ([2]; human NPY-Y1 membranes): − (“−” indicates less than 50% inhibition at 10 μM); A10 radioligand binding inhibition (Human opioid (ORL1); human ORL1 membranes): − (“−” indicates less than 50% inhibition at 10 μM); A11 radioligand binding inhibition (Mouse urotensin (mUR2); mouse urotensin mUR2 membranes): − (“−” indicates less than 50% inhibition at 10 μM)
5 | NCCC(=O)NC1C(OCc2ccc3ccccc3c2)OC(COCc2ccccc2)C(O)C1OCc1ccccc1 (stereo not shown) [compound 388] |  |  |  |  |  |  |  |  |  | − (“−” indicates less than 50% inhibition at 10 μM) | − (“−” indicates less than 50% inhibition at 10 μM) | − (“−” indicates less than 50% inhibition at 10 μM) | + (“+” indicates greater than 50% inhibition at 10 μM) | − (“−” indicates less than 50% inhibition at 10 μM) | − (“−” indicates less than 50% inhibition at 10 μM) | + (“+” indicates greater than 50% inhibition at 10 μM) | − (“−” indicates less than 50% inhibition at 10 μM) | − (“−” indicates less than 50% inhibition at 10 μM) | − (“−” indicates less than 50% inhibition at 10 μM) | A5: inhibition of radioligand binding (Human melanocortin (MC5); 10 µM): + (“+” indicates greater than 50% inhibition at 10 μM)
